Measured values reported in ChEMBL document CHEMBL4616670, “Phosphine Oxides from a Medicinal Chemist's Perspective: Physicochemical and in Vitro Parameters Relevant for Drug Discovery” (J Med Chem, 2020).
≈ marks a conversion by molar mass, not a printed value.

How the values were obtained:
physchem [1] = conditions: octanol/water, pH 11
Description: Octanol/water partition coefficient, log D of the compound at pH 11

physchem [2] = conditions: pH 6.8 buffer
physchem [3] = conditions: octanol/water, pH 2
Description: Octanol/water partition coefficient, log D of the compound at pH 2

in vitro [4] = conditions: human, Caco-2
Description: Permeability across apical to basolateral side in human Caco2 cells measured up to 2 hrs by LC-MS/MS analysis or scintillation counting method

[5] = 168 h
Description: Chemical stability of the compound in MeOH/NH3 solution at pH >10 assessed as compound decomposition measured after 7 days by UV-RP-HPLC analysis

in vitro [6] = conditions: human, Caco-2; remark: listed apart in the source
Description: Efflux ratio of permeability in human Caco2 cells measured up to 2 hrs by LC-MS/MS analysis or scintillation counting method

physchem [7] = conditions: MeOH/HCl solution
Description: Chemical stability of the compound in MeOH/HCl solution at pH <1 assessed as compound decomposition measured after 7 days by UV-RP-HPLC analysis

in vitro [8] = conditions: human, liver microsomes
Description: Half life in human liver microsomes at 1 uM incubated prior to NADPH addition by LC-MS/MS analysis

physchem [9] = conditions: pH 6.8 buffer; remark: listed apart in the source
in vitro [10] = conditions: human, liver microsomes; remark: listed apart in the source
Description: Stability in human liver microsomes at 1 uM incubated prior to NADPH addition by LC-MS/MS analysis relative to hepatic blood flow

[11] = Basic dissociation constant, pKb of the compound by UV absorption spectra analysis or potentiometric titration technique; format: physicochemical

Structure (SMILES) | logD (physchem [1]) | solubility thermodynamic at 24 h (physchem [2]) | logD (physchem [3]) | Papp A→B at 2 h (in vitro [4]) | Drug degradation [5] | efflux ratio at 2 h (in vitro [6]) | degraded at 168 h (physchem [7]) | half-life at 1 µM (in vitro [8]) | solubility thermodynamic at 24 h (physchem [9]) | hepatic extraction ratio at 1 µM (in vitro [10]) | pKb [11]
O=P1(c2ccc(C(F)(F)F)cc2)CCC1 | 1.6 | > 53 µg/mL | 1.8 | 78 ×10⁻⁶ cm/s | < 10% | 0.8 | < 10% | > 130 min | 24500 µg/mL (≈ 105000 µM) | < 0.23 | 
CNS(=N)(=O)c1ccc(C(F)(F)F)cc1 (stereo unspecified) | 1 | > 54 µg/mL | 0.8 | 70 ×10⁻⁶ cm/s |  | 0.9 |  |  | 6900 µg/mL (≈ 29000 µM) |  | 2.4
CS(=N)(=O)c1ccc(C(F)(F)F)cc1 (stereo unspecified) | 0.9 | > 50 µg/mL | 0.8 | 88 ×10⁻⁶ cm/s |  | 0.7 |  |  | 9100 µg/mL (≈ 40800 µM) |  | 2.5
CC(C)OP(=O)(OC(C)C)c1ccc(C(F)(F)F)cc1 | 4.2 | 29 µg/mL (≈ 93.5 µM) | 4.3 | 84 ×10⁻⁶ cm/s | < 10% | 0.5 | < 10% | > 130 min | 400 µg/mL (≈ 1290 µM) | < 0.23 | 
CN=S(=O)(c1ccc(C(F)(F)F)cc1)N(C)C (stereo unspecified) | 2.9 | 49 µg/mL (≈ 184 µM) | 2.2 | 70 ×10⁻⁶ cm/s |  | 0.8 |  |  | 1200 µg/mL (≈ 4510 µM) |  | 
CCOP(=O)(OCC)c1ccncc1 | 0.2 | > 50 µg/mL | 0 | 66 ×10⁻⁶ cm/s |  | 0.7 |  | > 130 min | 29500 µg/mL (≈ 137000 µM) | < 0.23 | 
O=P1(c2ccc(C(F)(F)F)cc2)CCOCC1 | 1.1 | > 65 µg/mL | 1.4 | 65 ×10⁻⁶ cm/s | < 10% | 0.7 | < 10% | > 130 min | > 30000 µg/mL | < 0.23 | 
O=S1(c2ccc(C(F)(F)F)cc2)=NCCCC1 (stereo unspecified) | 1.8 | > 59 µg/mL | 0.1 | 84 ×10⁻⁶ cm/s |  | 0.7 |  |  | 4700 µg/mL (≈ 17900 µM) |  | 3.8
Cc1ccc(NC(=O)c2ccc(C(=O)N(C)C)cc2)cc1Nc1nccc(-c2cccnc2)n1 | 2 | < 1 µg/mL | 0.7 | 19 ×10⁻⁶ cm/s |  | 2.2 |  | 67 min |  | 0.37 | 
COP(=O)(OC)c1ccc(C(F)(F)F)cc1 | 2.2 | 50 µg/mL (≈ 197 µM) | 2.5 | 85 ×10⁻⁶ cm/s | < 10% | 0.5 | < 10% | > 130 min | 10100 µg/mL (≈ 39700 µM) | < 0.23 | 
O=P1(c2ccc(C(F)(F)F)cc2)CCNCC1 | 0.5 | > 61 µg/mL | 0 | 13 ×10⁻⁶ cm/s | < 10% | 1.1 | < 10% | > 130 min | 28000 µg/mL (≈ 106000 µM) | < 0.23 | 6.9
CC(C)(C)OC(=O)c1ccc(C(F)(F)F)cc1 |  | 7 µg/mL (≈ 28.4 µM) |  |  |  |  |  |  | 20 µg/mL (≈ 81.2 µM) |  | 
CCOP(C)(=O)c1ccncc1 (stereo unspecified) | -0.7 | > 45 µg/mL | -1.1 | 54 ×10⁻⁶ cm/s |  | 0.6 |  | > 130 min | > 30000 µg/mL | < 0.23 | 
CN(C)S(=O)(=O)c1ccc(C(F)(F)F)cc1 |  | 47 µg/mL (≈ 186 µM) | 3.4 |  |  |  |  |  | 90 µg/mL (≈ 355 µM) |  | 
CCOC(=O)c1ccc(C(=O)Nc2ccc(C)c(Nc3nccc(-c4cccnc4)n3)c2)cc1 | 3.5 | < 1 µg/mL | 1.9 |  |  |  |  | < 5 min |  | > 0.88 | 
CNC(=O)c1ccc(C(F)(F)F)cc1 | 1.6 | > 51 µg/mL | 1.9 | 56 ×10⁻⁶ cm/s |  | 0.9 |  |  | 200 µg/mL (≈ 984 µM) |  | 
C[S+]([O-])c1ccc(C(F)(F)F)cc1 (stereo unspecified) | 1.4 | > 46 µg/mL | 1.7 |  |  |  |  |  | 11100 µg/mL (≈ 53300 µM) |  | 
CCP(=O)(CC)c1ccc(C(F)(F)F)cc1 | 2 | > 60 µg/mL | 2.3 | 88 ×10⁻⁶ cm/s | < 10% | 0.7 | < 10% | > 130 min | 22500 µg/mL (≈ 89900 µM) | < 0.23 | 

Structure (SMILES) | logD (physchem [1]) | solubility thermodynamic at 24 h (physchem [2]) | logD (physchem [3]) | Papp A→B at 2 h (in vitro [4]) | Drug degradation [5] | efflux ratio at 2 h (in vitro [6]) | degraded at 168 h (physchem [7]) | half-life at 1 µM (in vitro [8]) | solubility thermodynamic at 24 h (physchem [9]) | hepatic extraction ratio at 1 µM (in vitro [10]) | pKb [11]
Cc1ccc(NC(=O)c2ccc(C(N)=O)cc2)cc1Nc1nccc(-c2cccnc2)n1 | 1.5 | < 1 µg/mL | 0.4 | 3 ×10⁻⁶ cm/s |  | 8.1 |  | 117 min |  | 0.25 | 
CC(C)(C)NC(=O)c1ccc(C(F)(F)F)cc1 | 3.7 | 14 µg/mL (≈ 57.1 µM) | 3.8 | 56 ×10⁻⁶ cm/s |  | 0.7 |  |  | 10 µg/mL (≈ 40.8 µM) |  | 
COC(=O)c1ccc(C(F)(F)F)cc1 |  | < 1 µg/mL |  |  |  |  |  |  | 20 µg/mL (≈ 98 µM) |  | 
NC(=O)c1ccc(C(F)(F)F)cc1 |  | > 44 µg/mL | 1.5 | 68 ×10⁻⁶ cm/s |  | 1 |  |  | 300 µg/mL (≈ 1590 µM) |  | 
CNS(=O)(=O)c1ccc(C(F)(F)F)cc1 |  | > 49 µg/mL |  | 36 ×10⁻⁶ cm/s |  | 0.9 |  |  | 900 µg/mL (≈ 3760 µM) |  | 
CC(C)P(=O)(c1ccc(C(F)(F)F)cc1)C(C)C | 2.8 | > 61 µg/mL | 3.1 | 110 ×10⁻⁶ cm/s | < 10% | 0.5 | < 10% | > 130 min | 22200 µg/mL (≈ 79800 µM) | < 0.23 | 
CCOP(C)(=O)c1ccc(C(F)(F)F)cc1 (stereo unspecified) | 2.3 |  | 2.5 | 69 ×10⁻⁶ cm/s |  | 1 |  | > 130 min |  | < 0.23 | 
O=P1(c2ccc(C(F)(F)F)cc2)CCCCC1 | 2 | > 66 µg/mL | 2.4 | 49 ×10⁻⁶ cm/s | < 10% | 1.1 | < 10% | > 130 min | 7700 µg/mL (≈ 29400 µM) | < 0.23 | 
CN=S(C)(=O)c1ccc(C(F)(F)F)cc1 (stereo unspecified) | 1.7 | > 54 µg/mL | 0.7 | 67 ×10⁻⁶ cm/s |  | 1 |  |  | 2400 µg/mL (≈ 10100 µM) |  | 
CCOP(=O)(OCC)c1ccc(C(F)(F)F)cc1 | 3.2 | > 61 µg/mL | 3.4 | 95 ×10⁻⁶ cm/s | < 10% | 0.6 | < 10% | > 130 min | 1300 µg/mL (≈ 4610 µM) | < 0.23 | 
CP(C)(=O)c1ccc(C(F)(F)F)cc1 | 1.1 | > 52 µg/mL | 1.5 | 82 ×10⁻⁶ cm/s | < 10% | 0.5 | < 10% | > 130 min | > 30000 µg/mL | < 0.23 | 
CCOP(C)(=O)c1ccc(C(=O)Nc2ccc(C)c(Nc3nccc(-c4cccnc4)n3)c2)cc1 (stereo unspecified) | 2.2 | 51 µg/mL (≈ 105 µM) | 0.9 | 5 ×10⁻⁶ cm/s |  | 9.9 |  | 48 min |  | 0.45 | 
CNC(=O)c1ccc(C(=O)Nc2ccc(C)c(Nc3nccc(-c4cccnc4)n3)c2)cc1 | 1.7 | < 1 µg/mL | 0.5 | 8 ×10⁻⁶ cm/s |  | 4.9 |  | > 130 min |  | < 0.23 | 
NS(=O)(=O)c1ccc(C(F)(F)F)cc1 |  | > 48 µg/mL |  | 83 ×10⁻⁶ cm/s |  | 0.6 |  |  | 800 µg/mL (≈ 3550 µM) |  | 
CCP(=O)(CC)c1ccncc1 | -1 | > 46 µg/mL | < -1.8 | 19 ×10⁻⁶ cm/s |  | 0.6 |  | > 130 min | 11600 µg/mL (≈ 63300 µM) | < 0.23 | 
O=P1(c2ccc(C(F)(F)F)cc2)CCCC1 | 1.7 | > 59 µg/mL | 2 | 69 ×10⁻⁶ cm/s | < 10% | 0.7 | < 10% | > 130 min | 24500 µg/mL (≈ 98700 µM) | < 0.23 | 
CN=S(=O)(NC)c1ccc(C(F)(F)F)cc1 (stereo unspecified) | 1.8 | > 57 µg/mL | 0.7 | 81 ×10⁻⁶ cm/s |  | 0.5 |  |  | 1200 µg/mL (≈ 4760 µM) |  | 
CS(=O)(=O)c1ccc(C(F)(F)F)cc1 |  | > 47 µg/mL |  |  |  |  |  |  | 300 µg/mL (≈ 1340 µM) |  | 
